{
  "source": "patent US20100323456A1",
  "about": "(priority 2006, published 2010)",
  "key": {"[1]": {"test_system": "G-proteins coupled to opioid and ET receptors", "assay": "[35S]GTPγS binding assay (G-protein stimulation) in neuronal membranes of neonatal rat brain, placebo and morphine withdrawal groups", "assay_type": "biochemical", "details": "for Effect on [35S]GTPγS binding: brain of neonatal rats; for Effect on GTP binding: morphine withdrawal group compared to placebo; for Maximal stimulation of [35S]GTPγS binding / EC50: neonatal rat brain; for Maximal stimulation of [35S]GTPγS binding: 0.98 to 1000 nM; for EC50: read-out: EC50 for stimulated [35S]GTPγS binding"}, "ET receptors": {"test_system": "ET receptors", "details": "co-administration with morphine; cited from earlier work"}, "central ET receptors": {"test_system": "central ET receptors", "details": "intracerebroventricular administration; cited from earlier work"}},
  "note": "Values joined by “and” are separate entries in the source; they are usually repeats but may differ in a detail not shown here. Equal values may be shown once. “Also recorded” adds a separate entry of the source. Read-outs that look alike come from different tables or passages of the source. Non-standard residues stand in square brackets, D forms with d. Residues, ends and D or L forms follow the SMILES beside them.",
  "data": [
    {"smiles": "Cc1noc(NS(=O)(=O)c2cccc3c(N(C)C)cccc23)c1C", "note": "[BMS182874]", "values": [
      {"measurement": "Effect on [35S]GTPγS binding", "setting": "[1]", "result": "concentration-dependent increase"},
      {"measurement": "Effect on GTP binding", "setting": "[1]", "result": "significantly increased GTP binding"},
      {"measurement": "Maximal stimulation of [35S]GTPγS binding", "setting": "[1]; morphine withdrawal group", "result": 86.07, "unit": "%"},
      {"measurement": "EC50", "setting": "[1]; morphine withdrawal group", "result": "31.2 nM and 33.2 nM"},
      {"measurement": "Effect on G-protein stimulation / GTP binding", "setting": "[1]; placebo (normal) group", "result": "did not affect GTP binding; also recorded: did not stimulate G-proteins"},
      {"measurement": "Maximal stimulation of [35S]GTPγS binding", "setting": "[1]; placebo group", "result": "6.71±1.51", "unit": "%"},
      {"measurement": "EC50", "setting": "[1]; placebo group", "result": "> 1000", "unit": "nM"}
    ]},
    {"smiles": "CC(C)C[C@@H]1NC(=O)[C@@H](C(C)C)NC(=O)[C@@H]2CCCN2C(=O)[C@@H](CC(=O)O)NC(=O)[C@@H](Cc2c[nH]c3ccccc23)NC1=O", "note": "[BQ123] (cyclo(L[dW][dD]P[dV]))", "values": [
      {"measurement": "Effect on morphine-induced analgesia and hyperthermia", "setting": "ET receptors", "result": "potentiate morphine-induced analgesia and hyperthermia without affecting catalepsy"}
    ]},
    {"smiles": "CC[C@H](C)[C@H](NC(=O)[C@H](CC(=O)O)NC(=O)[C@H](CC(C)C)NC(=O)[C@H](Cc1c[nH]cn1)NC(=O)[C@@H]1CSSC[C@H](N)C(=O)N[C@@H](CO)C(=O)N[C@H]2CSSC[C@H](NC(=O)[C@H](CCC(=O)O)NC(=O)[C@H](CCCCN)NC(=O)[C@H](CC(=O)O)NC(=O)[C@H](CCSC)NC(=O)[C@H](CC(C)C)NC(=O)[C@H](CO)NC(=O)[C@H](CO)NC2=O)C(=O)N[C@@H](C(C)C)C(=O)N[C@@H](Cc2ccc(O)cc2)C(=O)N[C@@H](Cc2ccccc2)C(=O)N1)C(=O)N[C@H](C(=O)N[C@@H](Cc1c[nH]c2ccccc12)C(=O)O)[C@@H](C)CC", "note": "[ET-1]", "values": [
      {"measurement": "Effect on [35S]GTPγS binding", "setting": "[1]", "result": "concentration-dependent increase"},
      {"measurement": "Effect on GTP binding", "setting": "[1]", "result": "lower; also recorded: attenuated"},
      {"measurement": "Maximal stimulation of [35S]GTPγS binding", "setting": "[1]; morphine withdrawal group", "result": "87.16±4.83", "unit": "%"},
      {"measurement": "EC50", "setting": "[1]; morphine withdrawal group", "result": 171, "unit": "nM"},
      {"measurement": "Maximal stimulation of [35S]GTPγS binding", "setting": "[1]; placebo group", "result": "74.88±1.50", "unit": "%"},
      {"measurement": "EC50", "setting": "[1]; placebo group", "result": "20.66 ± 0.12", "unit": "nM"},
      {"measurement": "Effect on mean arterial blood pressure (BP)", "setting": "central ET receptors", "result": "transient rise followed by sustained fall"}
    ]},
    {"smiles": "CN1CC[C@]23c4c5ccc(O)c4O[C@H]2[C@@H](O)C=C[C@H]3[C@H]1C5", "note": "[Morphine]", "values": [
      {"measurement": "Effect on [35S]GTPγS binding", "setting": "[1]", "result": "concentration-dependent increase"},
      {"measurement": "Effect on GTP binding", "setting": "[1]", "result": "higher"},
      {"measurement": "Maximal stimulation of [35S]GTPγS binding", "setting": "[1]; morphine withdrawal group", "result": "83.60% and 83.60±5.77%"},
      {"measurement": "Maximal stimulation of [35S]GTPγS binding", "setting": "[1]; placebo group", "result": "66.81% and 66.31±1.51%"}
    ]}
  ]
}
